Data published in patent US9511058B2, “Methods for using carboxamide, sulfonamide and amine compounds” (Rigel Pharmaceuticals, Inc., priority 2010, dated 2016).

biological target: AMPK; test: AMPK activation, enzyme-linked immunosorbent assay; assay type: biochemical; conditions: compounds of Table 1 (Table 6)

| Structure (SMILES) | EC50 [nM] |
| --- | --- |
| CC(C)(C)OC(=O)N1CCC(NC(=O)c2cc3ccc(OC4CCN(c5ccc(C(F)(F)F)cc5)CC4)cc3o2)CC1 [1-82, tert-butyl 4-(6-(1-(4-(trifluoromethyl)phenyl)piperidin-4-yloxy)benzofuran-2-carboxamido)piperidine-1-carboxylate] | 100 to 500 |
| CC(C)(C)OC(=O)N1CCC(NC(=O)c2ccnc(OC3CCN(c4ccc(C(F)(F)F)cc4)CC3)c2)CC1 [1-15, tert-butyl 4-(2-(1-(4-(trifluoromethyl)phenyl)piperidin-4-yloxy)isonicotinamido)piperidine-1-carboxylate] | 1000 to 5000 |
| O=C(NC1CCN(Cc2ccc(C(F)(F)F)cc2)CC1)c1cc2ccc(OC3CCN(c4ccc(C(F)(F)F)cc4)CC3)cc2o1 [1-99, N-(1-(4-(trifluoromethyl)benzyl)piperidin-4-yl)-6-(1-(4-(trifluoromethyl)phenyl)piperidin-4-yloxy)benzofuran-2-carboxamide] | < 100 |
| CN(C(=O)c1cc2cc(OC3CCN(c4ccc(C(F)(F)F)cc4)CC3)ccc2o1)C1CCN(Cc2ccccc2C#N)CC1 [1-111, N-(1-(2-cyanobenzyl)piperidin-4-yl)-N-methyl-5-(1-(4-(trifluoromethyl)phenyl)piperidin-4-yloxy)benzofuran-2-carboxamide] | 100 to 500 |
| O=C(NC1CCN(Cc2ccccc2)CC1)c1cc2cc(OC3CCN(Cc4ccc(Cl)cc4)CC3)ccc2o1 [1-72, N-(1-benzylpiperidin-4-yl)-5-(1-(4-chlorobenzyl)piperidin-4-yloxy)benzofuran-2-carboxamide] | 100 to 500 |
| O=C(N[C@@H]1CCNC1)c1cc2cc(OC3CCN(c4ccc(C(F)(F)F)cc4)CC3)ccc2o1 [1-121, (R)-N-(pyrrolidin-3-yl)-5-(1-(4-(trifluoromethyl)phenyl)piperidin-4-yloxy)benzofuran-2-carboxamide] | > 10000 |
| N#Cc1ccc(CN2CCC(NC3CCc4cc(OC5CCN(c6ccc(C(F)(F)F)cc6)CC5)ccc43)CC2)cc1 (stereo not shown) [1-160, 4-((4-(5-(1-(4-(trifluoromethyl)phenyl)piperidin-4-yloxy)-2,3-dihydro-1H-inden-1-ylamino)piperidin-1-yl)methyl)benzonitrile] | < 100 |
| O=C(NC1CCN(Cc2ccccc2)CC1)c1cc2cc(OC3CCN(c4ccc(OC(F)(F)F)cc4)CC3)ccc2o1 [1-80, N-(1-benzylpiperidin-4-yl)-5-(1-(4-(trifluoromethoxy)phenyl)piperidin-4-yloxy)benzofuran-2-carboxamide] | < 100 |
| N#Cc1ccc(CN2CC[C@@H](NC(=O)c3ccc(OC4CCN(c5ccc(C(F)(F)F)cc5)CC4)cn3)C2)cc1 [1-33, (R)-N-(1-(4-cyanobenzyl)pyrrolidin-3-yl)-5-(1-(4-(trifluoromethyl)phenyl)piperidin-4-yloxy)picolinamide] | 500 to 1000 |

same assay, conditions: compounds of Table 2 (Table 7)

| Structure (SMILES) | EC50 [nM] |
| --- | --- |
| O=C(NC1CCN(Cc2ccc(C(F)(F)F)cc2)CC1)c1ccc2[nH]c3c(c2c1)CN(Cc1ccc(F)cc1)CC3 [2-10, N-(1-(4-trifluoro-methylbenzyl)piperidin-4-yl)-2-(4-fluorobenzyl)-2,3,4,5-tetrahydro-1H-pyrido[4,3-b] indole-8-carboxamide] | 500 to 1000 |

same assay, conditions: compounds of Table 3 (Table 8)

| Structure (SMILES) | EC50 [nM] |
| --- | --- |
| CC(C)(C)OC(=O)N1CCC(NC(=O)c2nc3ccc(OC4CCN(c5ccc(C(F)(F)F)cc5)CC4)cc3o2)CC1 [3-1, tert-butyl 4-(6-(1-(4-(trifluoromethyl)phenyl)piperidin-4-yloxy)benzo[d]oxazole-2-carboxamido)piperidine-1-carboxylate] | < 100 |

same assay, conditions: compounds of Table 5 (Table 10)

| Structure (SMILES) | EC50 [nM] |
| --- | --- |
| O=C(NC1CCN(Cc2ccc(Cl)cc2)CC1)c1ccc(OC2CCN(Cc3ccc(F)c(F)c3)CC2)c(F)c1 [5-71, N-(1-(4-chlorobenzyl)piperidin-4-yl)-4-(1-(3,4-difluorobenzyl)piperidin-4-yloxy)-3-fluorobenzamide] | < 1000 |
| N#Cc1ccc(CN2CCC(Oc3ccc(C(=O)NC4CCN(Cc5ccccc5)CC4)cc3F)CC2)cc1 [5-41, N-(1-benzylpiperidin-4-yl)-4-(1-(4-cyanobenzyl)piperidin-4-yloxy)-3-fluorobenzamide] | < 1000 |
